Columns and labels:
THP-1 cells = experiment: Resazurin (alamarBlue) cell viability assay in differentiated THP-1 cells; assay type: cell-based, human; conditions: footnote marks: * mild, ** marked reduction in viability, in % (unit assumed)
Procedure: (§1) The ability to inhibit TNF-α production was analyzed in THP-1 cells, a human acute monocytic leukemia cell line that is widely used to assess monocyte functions. In order to induce maturation, THP-1 cells were plated at 1×10^6 cells/ml and pretreated with 5 nM PMA for two days. Differentiated THP-1 cells were pretreated with various concentrations of NPI-1302a-3 or its analogs for 1 hour, followed by a 4 hour incubation with 1 μg of LPS (Sigma, St. Louse, Mo.). The P38 inhibitor (10 μM, SB 203580; Sigma, St. Louis, Mo.) was used as a positive control. Supernatants were collected and stored at −80° C. until assayed for TNF-α activity. A resazurin assay was performed for each analog to evaluate the effects on cell metabolism and viability.
A preparation of the dye resazurin, commercially-available as alamarBlue™ (Biosource International Inc.; 820 Flynn Road, Camarillo, Calif.), was used for the cytotoxicity assays described herein. The assays and experiments described herein were conducted in substantially the same manner as described in the scientific literature, for example, in Magnani, E and Bettini, E., “Resazurin detection of energy metabolism changes in serum-starved PC12 cells and of neuroprotective agent effect,” Brain Res Protoc., Jul. 5, 2000(3):266-72 and in Nociari M. M., Shalev A., Benias P., and Russo C. J, “A novel one-step, highly sensitive fluorometric assay to evaluate cell-mediated cytotoxicity,” Immunol.Methods 213, 157-167 (1998), see also U.S. Pat. No. 5,501,959, entitled “Antibiotic and Cytotoxic Drug Susceptibility Assays using Resazurin and Poising Agents,” the entire specification of which is incorporated herein by reference.

[1] = system: TNF-α synthesis of THP-1 cells; experiment: LPS-induced TNF-α production in PMA-differentiated THP-1 cells (FLISA); assay type: cell-based, human; conditions: THP-1, LPS
Procedure: as §1
To detect the presence of human TNFα, fluorescent linked immunosorbent assay or FLISA was developed and optimized. 100 μl of beads (6 μm, Spherotech) coated with goat anit-mouse IgG (1 mg/ml, R and D Systems) were mixed with 4 μl of biotin-anti-hTNFα mouse IgG (0.1 mg/ml, R and D Systems) and 2 μl of FMAT Blue-streptavidin (0.1 mg/ml, Applied Biosystems). 50 μl of the mixtures was combined with 50 μl of the supernatant isolated from treated THP-1 cells and added to the black wall FLISA plates (Applied Biosystems) and incubated overnight. The plates were scanned at factory set PMT setting, and the values were plotted and analyzed by Applied Biosystems software.

TNF-α synthesis [2] = experiment: Inhibition of LPS-induced TNF-α synthesis, RAW 264.7 macrophage cells; assay type: cell-based, Murine; conditions: for TNF-α: Table 7, LPS alone 88
Procedure: (§2) Murine macrophage cells RAW 264.7 (1×10^6/ml) were pretreated for 30-60 minutes with varying doses of the synthetic compound of Formula (I), the synthetic compound of formula (I) and a panel of analogs (diluted in 0.5% DMSO) prior to stimulation with various agents such as lipopolysaccharide (LPS) or a gram positive agent like heat-killed Staph aureus (SAC). Supernatants collected over a 72-hour period will be assayed for the levels of TNF-α, IL-1, IL-6, IL-10, IL-12 and other cytokines either by elisa or bioassay. Additional studies to evaluate the effects of the synthetic compound of Formulae (I), (II), (IIA) and (IIB) on cytokine signaling pathways such as, for example, Caspase-activity (Nr-1, Nr.3), transcription factors such as NF-kB, MAP-kinase activity (p38, ERK and JNK) will also be performed.

TNF-α synthesis [3] = experiment: Inhibition of SAC-induced TNF-α synthesis, RAW 264.7 macrophage cells; assay type: cell-based, Murine; conditions: SAC alone 375, unstimulated 5
Procedure: as §2

IL-1 synthesis = experiment: Inhibition of SAC-induced IL-1 synthesis, RAW 264.7 macrophage cells; assay type: cell-based, Murine; conditions: for IL-1α: Table 6, SAC-induced, SAC alone 650, unstimulated 0
Procedure: as §2

IL-6 synthesis = experiment: SAC-induced IL-6 synthesis, RAW 264.7 macrophage cells; assay type: cell-based, Murine
Procedure: as §2

LPS/D-Gal administration = experiment: Mortality after LPS/D-Gal administration; assay type: in vivo; conditions: i.p., TTL3 45 minutes prior to LPS

C=CC1(C)CCC=C2C1CCC1C(C)(C=O)CCCC21C (stereo not drawn) [CC-3-09]
Cell Viability (THP-1 cells; 100 ng/ml): 100 | Cell Viability (THP-1 cells; 1 ug/ml): 100 | Cell Viability (THP-1 cells; 10 ug/ml): 100 | Percent TNF-α Inhibition ([1]; 100 ng/ml): 0% | Percent TNF-α Inhibition ([1]; 1 ug/ml): 0% | Percent TNF-α Inhibition ([1]; 10 ug/ml): 10%

C=CC1(C)CCC=C2C1CCC1C(C)(C(=O)OC)CCCC21C (stereo not drawn) [TTL3]
TNF-α (TNF-α synthesis [2]; LPS (1 μg/ml) + TTL3 1.0 μg/ml): 13 ng/mL | TNF-α (TNF-α synthesis [2]; LPS (1 μg/ml) + TTL3 1 × 10^2 μg/ml): 4 ng/mL | TNF-α (TNF-α synthesis [2]; LPS (1 μg/ml) + TTL3 1 × 10^−4 μg/ml): 15 ng/mL | TNF-α (TNF-α synthesis [2]; LPS (1 μg/ml) + TTL3 1 × 10^−5 μg/ml): 10 ng/mL | TNF-α (TNF-α synthesis [2]; LPS (1 μg/ml) + TTL3 1 × 10^−6 μg/ml): 18 ng/mL | TNF-α (TNF-α synthesis [2]; LPS (1 μg/ml) + TTL3 1 × 10^−7 μg/ml): 41 ng/mL | times greater activity than TTL1 (inhibiting TNF-α synthesis) (TNF-α synthesis [2]; stimulus not given): approximately 100 times | TNF-α (TNF-α synthesis [3]; Table 5, TTL3 0.001 μg/ml): 80 ng/mL | TNF-α (TNF-α synthesis [3]; Table 5, TTL3 0.01 μg/ml): 75 ng/mL | TNF-α (TNF-α synthesis [3]; Table 5, TTL3 0.1 μg/ml): 85 ng/mL | TNF-α (TNF-α synthesis [3]; Table 5, TTL3 1 μg/ml): 60 ng/mL | TNF-α (TNF-α synthesis [3]; Table 5, TTL3 10 μg/ml): 80 ng/mL | IL-1α (IL-1 synthesis; TTL3 0.001 μg/ml): 200 pg/mL | IL-1α (IL-1 synthesis; TTL3 0.01 μg/ml): 220 pg/mL | IL-1α (IL-1 synthesis; TTL3 0.1 μg/ml): 190 pg/mL | IL-1α (IL-1 synthesis; TTL3 1 μg/ml): 180 pg/mL | IL-1α (IL-1 synthesis; TTL3 10 μg/ml): 170 pg/mL | times greater activity than TTL1 (inhibiting IL-1 synthesis) (IL-1 synthesis; stimulus not given): approximately 100 times | inhibition of IL-6 synthesis (IL-6 synthesis): neither analog TTL1 nor TTL3 significantly inhibited IL-6 synthesis | Mortality 24 hours (LPS/D-Gal administration; LPS/D-Gal alone 10/10, + DMSO 8/10): 2/10 | Mortality 48 hours (LPS/D-Gal administration; LPS/D-Gal alone 10/10, + DMSO 9/10): 2/10 | Cell Viability (THP-1 cells; 100 ng/ml): 100 | Cell Viability (THP-1 cells; 1 ug/ml): 100 | Cell Viability (THP-1 cells; 10 ug/ml): 100 | Percent TNF-α Inhibition ([1]; 100 ng/ml): 30% | Percent TNF-α Inhibition ([1]; 1 ug/ml): 55% | Percent TNF-α Inhibition ([1]; 10 ug/ml): 70%

C=CC1(C)CCC=C2C1CCC1C(C)(C(=O)N3CCOCC3)CCCC21C (stereo not drawn) [LT-1-85]
Cell Viability (THP-1 cells; 100 ng/ml): 100 | Cell Viability (THP-1 cells; 1 ug/ml): 100 | Cell Viability (THP-1 cells; 10 ug/ml): 80* | Percent TNF-α Inhibition ([1]; 100 ng/ml): 10% | Percent TNF-α Inhibition ([1]; 1 ug/ml): 45% | Percent TNF-α Inhibition ([1]; 10 ug/ml): 55%

C=CC1(C)CCC=C2C1CCC1C(C)(CCNCCN)CCCC21C (racemic) [CC-3-15 ra]
Cell Viability (THP-1 cells; 1 ug/ml): 100 | Cell Viability (THP-1 cells; 10 ug/ml): 100 | Percent TNF-α Inhibition ([1]; 1 ug/ml): 25% | Percent TNF-α Inhibition ([1]; 10 ug/ml): 65%

C=CC1(C)CCC=C2C1CCC1C(C)(C(=O)[O-])CCCC21C.[K+] (stereo not drawn) [TTL-1K]
Percent TNF-α Inhibition ([1]; 100 ng/ml): 10% | Percent TNF-α Inhibition ([1]; 1 ug/ml): 50%

C=CC1(C)CCC=C2C1CCC1C(C)(COC(C)=O)CCCC21C (stereo not drawn) [LT-1-46]
Cell Viability (THP-1 cells; 100 ng/ml): 100 | Cell Viability (THP-1 cells; 1 ug/ml): 90* | Cell Viability (THP-1 cells; 10 ug/ml): 90* | Percent TNF-α Inhibition ([1]; 100 ng/ml): 0% | Percent TNF-α Inhibition ([1]; 1 ug/ml): 0% | Percent TNF-α Inhibition ([1]; 10 ug/ml): 20%

C=CC1(C)CCC=C2C1CCC1C(C)(CNCCN)CCCC21C (racemic) [CC-3-13 ra]
Cell Viability (THP-1 cells; 100 ng/ml): 95* | Cell Viability (THP-1 cells; 1 ug/ml): 75** | Cell Viability (THP-1 cells; 10 ug/ml): 20** | Percent TNF-α Inhibition ([1]; 100 ng/ml): 10% | Percent TNF-α Inhibition ([1]; 1 ug/ml): 50% | Percent TNF-α Inhibition ([1]; 10 ug/ml): 95%

C=CC1(C)CCC=C2C1CCC1C(C)(CC=O)CCCC21C (stereo not drawn) [CC-3-14]
Cell Viability (THP-1 cells; 100 ng/ml): 100 | Cell Viability (THP-1 cells; 1 ug/ml): 100 | Percent TNF-α Inhibition ([1]; 100 ng/ml): 25% | Percent TNF-α Inhibition ([1]; 1 ug/ml): 30%

C=CC1(C)CCC=C2C1CCC1C(C)(C(=O)NCCN)CCCC21C (stereo not drawn) [LT-1-74]
Cell Viability (THP-1 cells; 100 ng/ml): 100 | Cell Viability (THP-1 cells; 1 ug/ml): 100 | Percent TNF-α Inhibition ([1]; 100 ng/ml): 25% | Percent TNF-α Inhibition ([1]; 1 ug/ml): 30%

C=CC1(C)CCC=C2C1CCC1C(C)(C(=O)N(CCO)CCO)CCCC21C (stereo not drawn) [LT-1-78]
Cell Viability (THP-1 cells; 100 ng/ml): 100 | Cell Viability (THP-1 cells; 1 ug/ml): 100 | Cell Viability (THP-1 cells; 10 ug/ml): 100 | Percent TNF-α Inhibition ([1]; 100 ng/ml): 0% | Percent TNF-α Inhibition ([1]; 1 ug/ml): 0% | Percent TNF-α Inhibition ([1]; 10 ug/ml): 20%

C=CC1(C)CCC=C2C1CCC1C(C)(C(=O)[O-])CCCC21C.[Na+] (stereo not drawn) [TTL-1Na]
Cell Viability (THP-1 cells; 1 ug/ml): 90* | Cell Viability (THP-1 cells; 10 ug/ml): 80* | Percent TNF-α Inhibition ([1]; 1 ug/ml): 40% | Percent TNF-α Inhibition ([1]; 10 ug/ml): 50%

C=CC1(C)CCC=C2C1CCC1C(C)(COC(=O)CCC(=O)O)CCCC21C (stereo not drawn) [CC-3-17]
Cell Viability (THP-1 cells; 100 ng/ml): 90* | Cell Viability (THP-1 cells; 1 ug/ml): 85* | Cell Viability (THP-1 cells; 10 ug/ml): 75** | Percent TNF-α Inhibition ([1]; 100 ng/ml): 10% | Percent TNF-α Inhibition ([1]; 1 ug/ml): 20% | Percent TNF-α Inhibition ([1]; 10 ug/ml): 25%

C=C[C@@]1(C)CCC=C2[C@H]1CC[C@@H]1[C@](C)(C(=O)O)CCC[C@@]21C [TTL1]
inhibition of IL-6 synthesis (IL-6 synthesis): neither analog TTL1 nor TTL3 significantly inhibited IL-6 synthesis | Cell Viability (THP-1 cells; 100 ng/ml): 100 | Cell Viability (THP-1 cells; 1 ug/ml): 100 | inhibition at 0.1 µg/mL ([1]; Homo sapiens, 100 ng/ml, read-out: Percent TNF-α Inhibition): 10% | inhibition at 1 µg/mL ([1]; Homo sapiens, 1 ug/ml, read-out: Percent TNF-α Inhibition): 30% | inhibition at 10 µg/mL ([1]; Homo sapiens, 10 ug/ml, read-out: Percent TNF-α Inhibition): 50%

— patent US7288671B2, “Interleukin-1 and tumor necrosis factor-α modulators, synthesis of said modulators and their enantiomers and methods of using said modulators” (Nereus Pharmaceuticals, Inc., priority 1999, dated 2007)
